# According to patent US7091351B2, “Vanadium compounds for treating cancer” (Parker Hughes Institute, priority 1998, dated 2006):
# Legend:
# Assay type in all cases: cell-based, human
# [1] = system: BT-20 breast cancer cells; assay: Immunofluorescence (anti-α-tubulin / toto-3) morphology, BT-20; conditions: 25 μM, 48-72 hr
# Protocol: In some experiments, immunofluorescence was used to examine the morphologic features of vanadocene-treated cancer cells. At the end of the indicated treatment period, cells were washed twice with PBS and fixed in 2% paraformaldehyde. The cells were permeabilized and non-specific binding sites were blocked with 2.5% BSA in PBS containing 0.1% Triton X-100 for 30 min. Tubulin expression was examined by immunofluorescence using a monoclonal antibody against α-tubulin (Sigma Chemical Co, St. Louis, Mo.) at a dilution of 1:1000 and an anti-mouse IgG conjugated to FITC. Cells were washed in PBS and counterstained with toto-3 (Molecular Probes Inc., Eugene, Oreg.) for 10 min at a dilution of 1:1000. Cells were washed again with PBS and the coverslips were mounted with Vectashield (Vector Labs, Burlingame, Calif.) and viewed with a confocal microscope (Bio-Rad MRC 1024) mounted in a Nikon Labhophot upright microscope. Digital images were saved on a Jaz disk and processed with Adobe Photoshop software (Adobe Systems, Mountain View, Calif.).
# [2] = system: ARH77 multiple myeloma cells; assay: MTT cytotoxicity assay of oxovanadium(IV) compounds, ARH77; conditions: 48 hr
# Protocol: The cytotoxicity of oxovanadium (W) complexes listed in Table 6 were tested against 9 different human cancer cell lines was performed using the MTT (3-[4,5-dimethylthiazol-2-yl]-2,5-diphenyl tetrazolium bromide) assay (Boehringer Mannheim Corp., Indianapolis, Ind.) as described previously (20). […] Triplicate wells were used for each treatment. To each well, 10 μl of MTT (0.5 mg/ml final concentration) was added and the plates were incubated at 37° C. for 4 hours to allow MTT to form formazan crystals by reacting with metabolically active cells . The formazan crystals were solubilized overnight at 37° C. in a solution containing 10% SDS in 0.01 M HCl. The absorbence of each well was measured in a microplate reader (Labsystems) at 540 nm and a reference wavelength of 690 nm. To translate the OD540 values into the number of live cells in each well, the OD540 values were compared to those on standard OD540—versus—cell number curves generated for each cell line. The percent survival was calculated using the formula: % survival=Live cell number[test]/Live cell number [control]×100. The IC50 values were calculated by non-linear regression analysis using an Graphpad Prism software version 2.0 (Graphpad Software, Inc., San Diego, Calif.).
# [3] = system: Tera-2 testicular cancer cells; assay: Cytotoxic activity of oxovanadium(IV) compounds, TERA-2; conditions: read-out: Cytotoxic Activity TERA-2
# Protocol: (§1) The cytotoxicity of oxovanadium (W) complexes listed in Table 6 were tested against 9 different human cancer cell lines was performed using the MTT (3-[4,5-dimethylthiazol-2-yl]-2,5-diphenyl tetrazolium bromide) assay (Boehringer Mannheim Corp., Indianapolis, Ind.) as described previously (20). Briefly, exponentially growing tumor cells were seeded into a 96-well plate at a density of 4×10^4cells/well and incubated with medium containing the oxovanadium(IV) compounds concentrations ranging from 0.1 to 250 μM for 48 hours at 37° C. in a humidified 5% CO2 atmosphere. Triplicate wells were used for each treatment. To each well, 10 μl of MTT (0.5 mg/ml final concentration) was added and the plates were incubated at 37° C. for 4 hours to allow MTT to form formazan crystals by reacting with metabolically active cells . The formazan crystals were solubilized overnight at 37° C. in a solution containing 10% SDS in 0.01 M HCl. The absorbence of each well was measured in a microplate reader (Labsystems) at 540 nm and a reference wavelength of 690 nm. To translate the OD540 values into the number of live cells in each well, the OD540 values were compared to those on standard OD540—versus—cell number curves generated for each cell line. The percent survival was calculated using the formula: % survival=Live cell number[test]/Live cell number [control]×100. The IC50 values were calculated by non-linear regression analysis using an Graphpad Prism software version 2.0 (Graphpad Software, Inc., San Diego, Calif.).
# [4] = system: 64cp5 testicular cancer cells; assay: Cytotoxic activity of oxovanadium(IV) compounds, 64cp5; conditions: read-out: Cytotoxic Activity 64cp5
# Protocol: as §1
# BT20 breast cancer cells = assay: Cytotoxic activity of oxovanadium(IV) compounds, BT20; conditions: read-out: Cytotoxic Activity BT20
# Protocol: as §1
# [5] = system: PC3 prostate cancer cells; assay: Cytotoxic activity of oxovanadium(IV) compounds, PC3; conditions: read-out: Cytotoxic Activity PC3
# Protocol: as §1
# MOLT-3 cells = assay: MTT cytotoxicity assay of oxovanadium(IV) compounds, MOLT-3; conditions: 48 hr
# Protocol: as §1
molecule,measurement,setting,value
"[Cl-].[Cl-].[V+4].c1cc[cH-]c1.c1cc[cH-]c1 [VDC, VCp2Cl2]",morphological features of BT-20 cells,[1],complete disruption of microtubules
"bis(4,7-dimethyl-1,10-phenanthroline)sulfatooxovanadium(IV) [Compound 29]",IC50,[2],810 ± 900 nM
same,IC50,[3],19500 nM
same,IC50,[4],750 nM
same,IC50,BT20 breast cancer cells,1500 nM
same,IC50,[5],1700 nM
same,IC50,MOLT-3 cells,190 ± 10 nM
